Measured values from US11274083B2, “Substituted thiophenyl uracils, salts thereof and the use thereof as herbicidal agents” (Syngenta Crop Protection AG, priority 2017, dated 2022).

What was measured:
Format in all cases: in vivo
Amaranthus retroflexus = experiment: Herbicidal action post-emergence, greenhouse pot test; settings: application rate 20 g/ha
Procedure: (§1) Seeds of mono- and dicotyledonous weed plants and crop plants were laid out in sandy loam soil in plastic or wood-fiber pots, covered with soil and grown under controlled growth conditions in a greenhouse. 2 to 3 weeks after sowing, the trial plants were treated at the one-leaf stage. The compounds of the invention formulated in the form of wettable powders (WP) or as emulsion concentrates (EC) were then sprayed onto the green parts of the plant as an aqueous suspension or emulsion with addition of 0.5% additive at a water application rate equivalent to 600 L/ha. After the trial plants had stood for about 3 weeks in the greenhouse, under optimal growth conditions, the effect of the preparations was scored visually by comparison with untreated controls. For example, 100% efficacy=plants have died, 0% efficacy=like control plants. Tables A1 to A16 below show the efficacies of selected compounds of the general formula (I) according to tables I.1 to I.50 on various harmful plants and an application rate corresponding to 80 g/ha or lower that were obtained by the aforementioned trial method.

Abutilon theophrasti = experiment: as above; settings: application rate 20 g/ha
Procedure: as §1

Viola tricolor = experiment: as above; settings: application rate 20 g/ha
Procedure: as §1

Veronica persica = experiment: as above; settings: application rate 20 g/ha
Procedure: as §1

Zea mays = experiment: Crop compatibility post-emergence, greenhouse pot test
Procedure: as §1, with “plants.” for “plants. Tables A1 to A16 below show the efficacies of selected compounds of the general formula (I) according to tables I.1 to I.50 on various harmful plants and an application rate corresponding to 80 g/ha or lower that were obtained by the aforementioned trial method.”
(§2) Crop plant compatibilities were also scored correspondingly.
(§3) The effects observed are reported here on selected crop plants by comparison, with the untreated controls (values in %).

Oryza sativa = experiment: as above
Procedure: as §1, with “plants.” for “plants. Tables A1 to A16 below show the efficacies of selected compounds of the general formula (I) according to tables I.1 to I.50 on various harmful plants and an application rate corresponding to 80 g/ha or lower that were obtained by the aforementioned trial method.”
as §2, §3

Triticum aestivum = experiment: as above
Procedure: as §1, with “plants.” for “plants. Tables A1 to A16 below show the efficacies of selected compounds of the general formula (I) according to tables I.1 to I.50 on various harmful plants and an application rate corresponding to 80 g/ha or lower that were obtained by the aforementioned trial method.”
as §2, §3

Lolium rigidum [1] = experiment: Herbicidal action pre-emergence, greenhouse pot test; settings: application rate 320 g/ha
Text: Seeds of mono- and dicotyledonous weeds and crop plants were laid out in plastic or organic plant pots and covered with soil. The compounds of the invention formulated in the form of wettable powders (WP) or as emulsion concentrates (EC) were then applied to the surface of the covering soil as an aqueous suspension or emulsion with addition of 0.5% additive at a water application rate equivalent to 600 L/ha. After the treatment, the pots were placed in a greenhouse and kept under good growth conditions for the test plants. After about 3 weeks, the efficacy of the preparations was scored visually as a percentage by comparison with untreated controls. For example, 100% efficacy=plants have died. 0% efficacy=like control plants. Tables B1 to B17 below show the efficacies of selected compounds of the general formula (I) according to tables I.1 to I.50 on various harmful plants and an application rate corresponding to 320 g/ha or lower that were obtained by the aforementioned trial method.

Setaria viridis = experiment: Herbicidal action post-emergence, greenhouse pot test; settings: application rate 20 g/ha
Procedure: as §1

Polygonum convolvulus = experiment: as above; settings: application rate 20 g/ha
Procedure: as §1

Stellaria media = experiment: as above; settings: application rate 20 g/ha
Procedure: as §1

Echinochloa crus-galli = experiment: as above; settings: application rate 20 g/ha
Procedure: as §1

Matricaria inodora = experiment: as above; settings: application rate 20 g/ha
Procedure: as §1

Pharbitis purpurea = experiment: as above; settings: application rate 20 g/ha
Procedure: as §1

Alopecurus myosuroides = experiment: as above; settings: application rate 20 g/ha, scored visually after about 3 weeks vs untreated controls
Procedure: as §1

Digitaria sanguinalis = experiment: as above; settings: application rate 20 g/ha
Lolium rigidum [2] = experiment: as above; settings: application rate 20 g/ha
Procedure: as §1

Row | Compound | Zea mays (Efficacy in %) (Zea mays; application rate 20 g/ha) [%] | Oryza sativa (Efficacy in %) (Oryza sativa; application rate 20 g/ha) [%] | Triticum aestivum (Efficacy in %) (Triticum aestivum; application rate 20 g/ha) [%] | Triticum aestivum (Efficacy in %) (Triticum aestivum; application rate 5 g/ha) [%] | Oryza sativa (Efficacy in %) (Oryza sativa; application rate 5 g/ha) [%] | Zea mays (Efficacy in %) (Zea mays; application rate 5 g/ha) [%] | Amaranthus retroflexus (Efficacy in %) (Amaranthus retroflexus) [%] | Abutilon theophrasti (Efficacy in %) (Abutilon theophrasti) [%] | Viola tricolor (Efficacy in %) (Viola tricolor) [%] | Veronica persica (Efficacy in %) (Veronica persica) [%] | Lolium rigidum (Efficacy in %) (Lolium rigidum [1]) [%] | Setaria viridis (Efficacy in %) (Setaria viridis) [%] | Polygonum convolvulus (Efficacy in %) (Polygonum convolvulus) [%] | Stellaria media (Efficacy in %) (Stellaria media) [%] | Echinochloa crus-galli (Efficacy in %) (Echinochloa crus-galli) [%] | Matricaria inodora (Efficacy in %) (Matricaria inodora) [%] | Pharbitis purpurea (Efficacy in %) (Pharbitis purpurea) [%] | Alopecurus myosuroides (Efficacy in %) (Alopecurus myosuroides) [%] | Digitaria sanguinalis (Efficacy in %) (Digitaria sanguinalis) [%] | Lolium rigidum (Efficacy in %) (Lolium rigidum [2]) [%]
1 | CC(Sc1cc(-n2c(=O)cc(C(F)(F)F)n(C)c2=O)c(F)cc1Cl)C(=O)OCCC(=O)OCc1ccccc1 (stereo not shown) [I.1-6] | 10 | 0 | 0 |  |  |  | 100 | 100 | 100 | 100 |  |  |  |  |  |  |  |  |  | 
2 | CC(Sc1cc(-n2c(=O)cc(C(F)(F)F)n(C)c2=O)c(F)cc1Cl)C(=O)OCCC(=O)OCC1CC1 (stereo not shown) [I.1-7] |  |  |  |  |  |  |  |  |  |  | 90 |  |  |  |  |  |  |  |  | 
3 | CCOC(=O)COC(=O)C(C)Sc1cc(-n2c(=O)cc(C(F)(F)F)n(C)c2=O)c(F)cc1Cl (stereo not shown) [I.1-43] |  |  |  | 10 |  |  | 100 | 100 | 100 | 100 |  | 100 | 100 | 80 | 100 | 100 | 100 | 80 | 100 | 
4 | CCNC(=O)CCOC(=O)C(C)Sc1cc(-n2c(=O)cc(C(F)(F)F)n(C)c2=O)c(F)cc1Cl (stereo not shown) [I.1-153] |  |  |  |  | 10 |  | 100 | 100 | 100 | 100 |  | 100 | 100 | 100 | 100 | 100 | 100 | 90 | 100 | 80
5 | CC(Sc1cc(-n2c(=O)cc(C(F)(F)F)n(C)c2=O)c(F)cc1Cl)C(=O)OCCC(=O)N(C)C (stereo not shown) [I.1-231] |  |  |  | 20 | 10 | 20 | 100 | 100 | 100 | 100 |  | 100 | 100 | 100 | 100 | 100 | 100 |  | 100 | 
6 | CCN(C)C(=O)CCOC(=O)C(C)Sc1cc(-n2c(=O)cc(C(F)(F)F)n(C)c2=O)c(F)cc1Cl (stereo not shown) [I.1-233] |  | 20 |  |  |  |  | 100 | 100 | 100 | 100 |  | 100 | 100 | 100 | 100 | 100 | 100 | 90 | 100 | 90

Second part, led by results:

Row | Zea mays (Efficacy in %) (Zea mays; application rate 20 g/ha) [%] | Oryza sativa (Efficacy in %) (Oryza sativa; application rate 20 g/ha) [%] | Triticum aestivum (Efficacy in %) (Triticum aestivum; application rate 20 g/ha) [%] | Triticum aestivum (Efficacy in %) (Triticum aestivum; application rate 5 g/ha) [%] | Oryza sativa (Efficacy in %) (Oryza sativa; application rate 5 g/ha) [%] | Zea mays (Efficacy in %) (Zea mays; application rate 5 g/ha) [%] | Compound | Amaranthus retroflexus (Efficacy in %) (Amaranthus retroflexus) [%] | Abutilon theophrasti (Efficacy in %) (Abutilon theophrasti) [%] | Viola tricolor (Efficacy in %) (Viola tricolor) [%] | Veronica persica (Efficacy in %) (Veronica persica) [%] | Lolium rigidum (Efficacy in %) (Lolium rigidum [1]) [%] | Setaria viridis (Efficacy in %) (Setaria viridis) [%] | Polygonum convolvulus (Efficacy in %) (Polygonum convolvulus) [%] | Stellaria media (Efficacy in %) (Stellaria media) [%] | Echinochloa crus-galli (Efficacy in %) (Echinochloa crus-galli) [%] | Matricaria inodora (Efficacy in %) (Matricaria inodora) [%] | Pharbitis purpurea (Efficacy in %) (Pharbitis purpurea) [%] | Alopecurus myosuroides (Efficacy in %) (Alopecurus myosuroides) [%] | Digitaria sanguinalis (Efficacy in %) (Digitaria sanguinalis) [%] | Lolium rigidum (Efficacy in %) (Lolium rigidum [2]) [%]
7 | 0 | 0 | 0 |  |  |  | CCCOC(=O)CCOC(=O)C(CC)Sc1cc(-n2c(=O)cc(C(F)(F)F)n(C)c2=O)c(F)cc1Cl (stereo not shown) [I.2-8] | 100 | 100 | 100 | 100 |  | 100 | 100 | 100 | 100 | 100 | 100 |  | 100 | 
8 |  | 0 |  | 20 |  | 20 | CCC(Sc1cc(-n2c(=O)cc(C(F)(F)F)n(C)c2=O)c(F)cc1Cl)C(=O)OCC(C)(C)C(=O)OC (stereo not shown) [I.2-32] | 100 | 100 | 100 | 100 |  | 100 | 100 |  | 100 | 100 | 100 | 80 | 100 | 80
9 |  |  |  | 20 |  |  | CCC(C)C(Sc1cc(-n2c(=O)cc(C(F)(F)F)n(C)c2=O)c(F)cc1Cl)C(=O)OCCC(=O)OC (stereo not shown) [I.5-2] | 100 | 100 | 100 | 100 |  | 100 | 100 | 100 | 100 | 100 | 100 | 80 | 80 | 
10 |  |  |  | 20 |  |  | CCOC(=O)CCOC(=O)C(Sc1cc(-n2c(=O)cc(C(F)(F)F)n(C)c2=O)c(F)cc1Cl)C(C)CC (stereo not shown) [I.5-3] | 100 | 100 | 100 | 100 |  | 100 | 100 | 100 | 100 | 100 | 100 | 80 | 80 | 
